Reference: patent US11773108B2, “Indene derivatives useful in treating pain and inflammation” (TARO PHARMACEUTICALS INC., priority 2018, dated 2023)

Legend:
[1] = system: T cells isolated from mouse spleens; assay: T cell proliferation (anti-CD3/anti-CD28 dynabeads, CCK-8 assay); type: cell-based; conditions: 72 hours, read-out: Scoring: IC50, cell proliferation
Protocol: weeks old. Cells were harvested under sterile conditions by forcing each spleen though a cell filter (pore size 100 μm diameter). A homogenous cell suspension was obtained by washing the cells in fresh medium and passing cells through a smaller cell filter (pore size 70 μm).
Untouched T cells were isolated using the Pan T cell isolation kit (Miltenyi Biotech). Briefly, cells were counted and incubated with the required volume of antibody cocktail for 5 minutes at 4° C. before addition of microbeads and incubation for 10 minutes at 4° C. Labeled cells were retained in a magnetic column while unlabeled cells (T cells) passed through the column and were retained for use in the assay.
Cell viability was assessed by Trypan Blue exclusion and found to be >99% prior to transfer to plates. Isolated T cells were seeded out in 96 well plates at a density of 50,000 cells per well and allowed to incubate for 60 minutes in a humidified cell culture (37° C., 5% CO2) incubator prior to compound treatment. The media used for this assay (TexMACS, Miltenyi Biotech) was previously optimized for proliferation of T cells in serum free conditions.
Representative compounds of the invention (i.e., test compounds) were prepared as 30 mM stocks in 100% DMSO. Test compounds were initially diluted in media to yield 3 mM stocks before an additional 1:10 dilution in media was performed to yield working stocks of 300 μM (1% DMSO). Subsequent dilutions were performed in media (supplemented with 1% DMSO). When added to the assay plates (1:10 dilution), these yielded final concentrations in the assay plates of in 0.1% DMSO. The reference compound, Cyclosporin A, was prepared in an identical manner as above.
Unstimulated and Stimulated Control wells received an identical volume of TexMACS media/1% DMSO at this time, resulting in a final concentration of 0.1% DMSO across the plate. […] After removal of 60% of the supernatant for subsequent ELISA, cell proliferation was assessed using the CCK-8 assay. […]

Mice (male, C57BL/6) = assay: Formalin pain assay in mice; type: in vivo, mouse; conditions: 2.5% formalin in left hind paw, time spent flinching/licking/biting
Protocol: Mice (male, C57BL/6) were placed singly in a Perspex chamber for approximately 30 min on three successive days to acclimate and thereby reduce stress-induced behaviors. On the fourth day, the experimental animals received a 25 μl injection of 2.5% formalin beneath the left plantar skin using a 29-gauge syringe. […] The total time spent on flinches/licking/biting of the hind paw was recorded by visual observation for every 5 min period/interval for total observation duration of 60 min in two phases, the early phase (0-5 min) and the late phase (15-40 min). Observers were blinded to the treatment group allocation.
For test compounds, % protection from 0-60 min was used to assess activity. Scoring for the test compounds was as follows: “A” represents a % protection of 81 to 100%, “B” represents a % protection of 61 to 80%, “C” represents a % protection of 31 to 60% and “D” represents a % protection of 0 to 30%.

[2] = Metabolism by human liver microsomes; type: in vitro ADME; conditions: human liver microsomes 1 mg/mL protein, 10 μM, in the presence of NADPH, LC-MS/MS
Protocol: Representative compounds of the invention (i.e., test compounds) and the positive control, 7-ethoxycoumarin, were prepared as stock solutions at 10 mM in DMSO and eventually diluted to 10 μM in the test plate, with an appropriate amount of acetonitrile and tris HCl buffer. Final DMSO and acetonitrile concentrations were […] and 0.5% respectively. NADPH was prepared in tris HCl buffer to a stock of 10 mM. A frozen aliquot of liver microsomes was retrieved from the freezer (−80° C.) and thawed by placing the tube on wet ice. After thawing, the tubes were gently mixed and the required amount, transferred to tris HCl buffer. Test compounds or positive control were pre-incubated, separately, for 10 minutes, with liver microsomes (1 mg/mL protein), at 37° C., in 100 mM Tris HCl at pH 7.5. After preincubation the reaction was started by adding 1 mM NADPH (pre-equilibrated to 30° C.) and the reaction allowed to proceed for 60 minutes. At 60 minutes, a 50 μL aliquot was removed and quenched with 200 uL of acetonitrile containing a mixture of internal standards (Tolbutamide (500 ng/mL) and Telmistartan (500 ng/mL)) and vortexed then centrifuged at 4000 rpm for 10 minutes (Eppendorf 5810R). The supernatant was transferred to a 96 well plate for LC-MS/MS analysis.
An LC-MS/MS method was devised for the test compounds and the control, using a AB Sciex API 4000 system coupled to a NEXAR™ UHPLC (Shimadzu) system. Analytes were separated on a Phenomenex Kinetex C18 column (50×2.1 mm, 5 μm) using a gradient that was appropriate for each compound, at a flow rate of 1 ml/minute, utilizing a mobile phase of 0.1% formic acid in MILLI-Q™ water (A) and 0.1% formic acid in acetonitrile (B). The MS instrument was operated in positive mode (ESI+)/negative (ESI−). The multiple reaction monitoring (MRM) transition for test and control compounds was used for the LC-MS/MS analysis. MRM transitions for control compound 7-ethoxycoumarinm were Quadropole 1: 191.0, Quadropole 3:163.0, dwell time: 75 msec, using curtain gas settings of 5 V, ion-spray voltage of 5500 V, temperature of 50° C. and gas settings for nebulizer and auxiliary set to 30 and 40 psi, respectively. The interface heater was kept on. Entrance potential and collision cell exit potential were varied to tune for a specific compound.
Using a suitable LC-MS/MS method, the percentage of drug remaining at 60 minutes ([…]) was assessed by comparing the average analyte to internal standard area ratio at 60 minutes to the average analyte to internal standard area ratio at 0 time control, as a percentage, from a 5 to 10 μL sample injection.
According to the above assay, the test compounds listed in Table 7 below were active in the Human liver microsome assay at 10 μM and the % of drug remaining after 60 minutes (PDR60), in the presence of NADPH, was assessed by LC-MS/MS. Average PDR60 for the standard compound, 7-ethoxycoumarin was <=65% in the presence of NADPH. Scoring for the test compounds, in the presence of NADPH, was as follows: “A” represents a PDR60 of 81 to 100%, “B” represents a PDR60 of 61 to 80%, “C” represents a PDR60 of 31 to 60% and “D” represents a PDR60 of 0 to 30%.

[3] = system: rat dorsal root ganglion (DRG) cells; assay: Rat dorsal root ganglion (DRG) excitability response to electrical field stimulation; type: cell-based; conditions: adult rat DRG cells, Ca5 Ca2+ indicator, six concentrations, highest typically 30 μM, read-out: Scoring: EC50, modulation of rat DRG excitability
Protocol: Rat Dorsal Root Ganglion Excitability Response of Representative Compounds Dorsal root ganglions (DRGs) were dissected from adult rats. The tissue was processed, and cells were seeded into cell culture plates (48 center wells of one quadrant in 384-well plates) and cultured for 2 days prior to Electrical field stimulation (EFS). To visualize the neuronal excitability response, intracellular Ca^+2 transients were monitored using the Ca^+2 indicator, Ca5. Ca5 was added to the cultures 1 h prior to EFS. Representative compounds of the invention (i.e., test compounds) and reference compound, tetracaine, were added in concentration-response format encompassing six concentrations, performed in duplicate. The highest concentration tested was typically 30 μM with 1 in 3 dilutions generating the subsequent concentrations.
Effects on DRG excitability by the test compounds and standard were evaluated using four EFS protocols as disclosed in Table 2.
Experimental results were performed using two seperate sets of plates using separate test compound and standard dilutions, to provide n=2. In the first set of experiments, compounds were added 24 h prior to EFS to increase the possibility to also detect more long-term compound effects. In the second set of experiments the compounds were added directly prior to EFS. Excitability response to EFS was analyzed as the average fluorescence ratio (peak/baseline) change per well. All plates were evaluated using high content imaging equipment post-EFS, imaging the Ca5 background staining to detect any possibile compound-related toxic effects.
Average response by the reference compound, tetracaine, was 4.05 μM.

Scoring: % of drug remaining after 60 minutes (PDR60) [2]	Structure (SMILES)	IC50 [1] [µM]	Scoring: % protection from 0-60 min (Mice (male, C57BL/6))	EC50 [3] [µM]
	C[C@@H]1CC[C@@]2(OC1)O[C@H]1C[C@H]3[C@H](CO)[C@@H]([C@@]4(C)Cc5cn[nH]c5C[C@@H]4CO)CC[C@]3(C)[C@H]1[C@@H]2C [Ia-1, ((5R,6S)-5-((2R,3S,3aR,3bS,5′R,6S,7R,7aS,8aS)-7-(hydroxymethyl)-3,3b,5′-trimethyltetradecahydrospiro[indeno[2,1-b]furan-2,2′-pyran]-6-yl)-5-methyl-4,5,6,7-tetrahydro-1H-indazol-6-yl)methanol]	1.5 to 15		
A (“A” represents a PDR60 of 81 to 100%)	C[C@@H]1CC[C@@]2(OC1)O[C@H]1C[C@H]3[C@H](CN)[C@@H]([C@@]4(C)Cc5cn[nH]c5C[C@@H]4CO)CC[C@]3(C)[C@H]1[C@@H]2C [Ia-2, ((5R,6S)-5-((2R,3S,3aR,3bS,5′R,6S,7R,7aS,8aS)-7-(aminomethyl)-3,3b,5′-trimethyltetradecahydrospiro[indeno[2,1-b]furan-2,2′-pyran]-6-yl)-5-methyl-4,5,6,7-tetrahydro-1H-indazol-6-yl)methanol]	1.5 to 15	D (“D” represents a % protection of 0 to 30%)	6 to 15
	CC[C@H](CC(O)[C@@H](C)[C@H]1CC[C@H]2[C@H](CO)[C@@H]([C@@]3(C)Cc4cn[nH]c4C[C@@H]3CO)CC[C@]12C)C(C)C (stereo partly drawn) [Ia-9, (2S,5R)-5-ethyl-2-((1R,3aS,4S,5S,7aS)-4-(hydroxymethyl)-5-((5R,6S)-6-(hydroxymethyl)-5-methyl-4,5,6,7-tetrahydro-1H-indazol-5-yl)-7a-methyloctahydro-1H-inden-1-yl)-6-methylheptan-3-ol]	1.5 to 15		
C (“C” represents a PDR60 of 31 to 60%)	C[C@]1([C@H]2CC[C@]3(C)C(O)CC[C@H]3[C@@H]2CO)Cc2cn[nH]c2C[C@@H]1CO (some centres unmarked) [Ia-10a and Ia-10b]		C (“C” represents a % protection of 31 to 60%)	
